Assay results: the supplement of paper PMC10307832

Assays:
MK-2206 = compound: NC1(c2ccc(-c3nc4ccn5c(=O)[nH]nc5c4cc3-c3ccccc3)cc2)CCC1 [MK-2206]; assay: relative viability (nuclei count vs DMSO), 5 days (fraction); higher = more cells survive
Procedure, shortened: (§1)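 Five library-drug doses, separated by factors of √10, were pinned into 1536-well plates holding lung cancer cell lines after an overnight stay at 37 °C. Cells were fixed, permeabilised and Hoechst-stained in one step after 5 days without medium change, then imaged at 4×. Viability compares treated-well with vehicle-well nuclei, counted in MetaXpress, as a median across plates. Passing plates had control CV below 25% and at least one doubling.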

Pictilisib = compound: CS(=O)(=O)N1CCN(Cc2cc3nc(-c4cccc5[nH]ncc45)nc(N4CCOCC4)c3s2)CC1 [Pictilisib]; assay: as above
Procedure, shortened: as §1

Cell Line	relative viability (MK-2206; 0.01 µM)	relative viability (MK-2206; 0.03162 µM)	relative viability (MK-2206; 0.3162 µM)	relative viability (MK-2206; 1 µM)	relative viability (Pictilisib; 0.02 µM)	relative viability (Pictilisib; 0.06325 µM)	relative viability (Pictilisib; 0.6325 µM)	relative viability (Pictilisib; 1 µM, anchor plate)	relative viability (Pictilisib; 2 µM)
201T	0.987	1.03	0.982	0.995	0.97	0.964	0.921	0.702	0.64
A549	1.02	1.07	0.921	0.877	0.992	0.97	0.731	0.517	0.437
A-427	1.04	1.06	0.981	0.974	1.1	1.07	0.921	0.698	0.74
ABC-1	0.947	0.949	0.884	0.879	1.02	0.962	0.764	0.782	0.551
BEN	0.97	1.08	1.07	0.836	1	1.01	0.951	0.57	0.75
CAL-12T	0.939	1.06	1.07	0.953	1.12	1.12	1.03	0.475	0.589
COR-L23	1.01	1.05	1.03	0.99	1.14	1.1	1.03	0.807	0.763
COR-L 105	0.854	0.958	0.934	0.801	1.1	0.974	0.871	0.391	0.555
Calu-6	1.02	1.06	1.01	0.962	1.05	1.04	1.01	0.907	0.792
ChaGo-K-1	1.02	1.14	0.968	0.866	1.04	1.02	0.893	0.783	0.815
EBC-1	0.986	1.01	0.819	0.29	0.943	1.14	0.868	0.409	0.272
EKVX	1.01	0.952	0.936	0.758	0.911	0.941	0.91	0.433	0.453
EMC-BAC-2	0.95	0.959	0.926	0.871	1.21	1.04	0.727	0.555	0.565
EPLC-272H	1.09	0.914	0.77	0.716	0.988	0.909	0.668	0.332	0.496
